Tests used:
HT-29 [1] = assay: Antiproliferative activity against human HT-29 cells by MTT assay; type: functional, cell-based
PANC-1 = assay: Antiproliferative activity against human PANC1 cells by MTT assay; type: functional, cell-based
HepG2 = assay: Antiproliferative activity against human HepG2 cells by MTT assay; type: functional, cell-based
A-375 = assay: Growth inhibition of human A375 cells by MTT assay; type: functional, cell-based
HeLa = assay: Growth inhibition of human HeLa cells by MTT assay; type: functional, cell-based
A549 = assay: Growth inhibition of human A549 cells at 330 umol/L by MTT assay relative to control; type: functional; settings: read-out: GI
SW480 [2] = assay: Growth inhibition of human SW480 cells at 330 umol/L by MTT assay relative to control; type: functional; settings: read-out: GI
A-431 = assay: Growth inhibition of human A431 cells at 120 umol/L by MTT assay relative to control; type: functional; settings: read-out: GI
SW480 [3] = assay: Antitumor activity against human SW480 cells xenografted in Balb/c mouse assessed as tumor growth inhibition at 30 mg/kg, ip administered 2 times per week relative to control; type: functional; settings: read-out: TGI
HT-29 [4] = assay: Growth inhibition of human HT-29 cells at 10 ug/ml by MTT assay relative to control; type: functional; settings: read-out: GI
HT-29 [5] = assay: Growth inhibition of human HT-29 cells at 2.5 ug/ml by MTT assay relative to control; type: functional; settings: read-out: GI
HT-29 [6] = assay: Growth inhibition of human HT-29 cells at 5 ug/ml by MTT assay relative to control; type: functional; settings: read-out: GI
HT-29 [7] = assay: Growth inhibition of human HT-29 cells at 1.25 ug/ml by MTT assay relative to control; type: functional; settings: read-out: GI

`COc1ccc(/C=C2\CC[C@@H]3[C@H]4CCCN5CCC[C@@H](CN3C2=O)[C@@H]45)cc1` gave an IC50 (HT-29 [1]) of 27.8 µM and an IC50 (PANC-1) of 27.8 µM.

`COc1cc(/C=C2\CC[C@@H]3[C@H]4CCCN5CCC[C@@H](CN3C2=O)[C@@H]45)cc(OC)c1OC` showed an IC50 (HT-29 [1]) of 9.05 µM and an IC50 (PANC-1) of 9.05 µM.

`O=C(CCC[C@@H]1[C@H]2CCCN3CCC[C@@H](CN1Cc1ccccc1)[C@@H]23)OCCc1no[n+]([O-])c1S(=O)(=O)c1ccccc1` was tested, and the IC50 (HepG2) was 11.4 µM.

Compound `CCCCOC(=O)CCC[C@@H]1[C@H]2CCCN3CCC[C@@H](CN1Cc1ccccc1)[C@@H]23` has an IC50 (A-375) of 149 µM and an IC50 (HeLa) of 304 µM.

Compound `O=C(CCC[C@@H]1[C@H]2CCCN3CCC[C@@H](CN1Cc1ccccc1)[C@@H]23)OCCCc1no[n+]([O-])c1S(=O)(=O)c1ccccc1` has an IC50 (HepG2) of 11.5 µM.

`COc1ccc(/C=C2\CC[C@@H]3[C@H]4CCCN5CCC[C@@H](CN3C2=O)[C@@H]45)c(OC)c1OC` gave an IC50 (HT-29 [1]) of 13.2 µM and an IC50 (PANC-1) of 13.2 µM.

`O=C1C[C@@H](SC(=S)N2CCCCC2)C[C@@H]2[C@H]3CCCN4CCC[C@@H](CN12)[C@@H]34` showed an inhibition of growth at 330 µM (A549) greater than 95%, an inhibition of growth at 330 µM (SW480 [2]) greater than 65% and an inhibition of growth at 120 µM (A-431) greater than 94%.

With `COc1ccc(/C=C2\CC[C@@H]3[C@H]4CCCN5CCC[C@@H](CN3C2=O)[C@@H]45)cc1OC` the IC50 (HT-29 [1]) was 18 µM and the IC50 (PANC-1) was 18 µM.

With `O=C(CCC[C@@H]1[C@H]2CCCN3CCC[C@@H](CN1Cc1ccccc1)[C@@H]23)NCCc1no[n+]([O-])c1S(=O)(=O)c1ccccc1` the IC50 (HepG2) was 8.02 µM.

Work on `O=C(CCC[C@@H]1[C@H]2CCCN3CCC[C@@H](CN1Cc1ccccc1)[C@@H]23)OCCOCCc1no[n+]([O-])c1S(=O)(=O)c1ccccc1` yielded an IC50 (HepG2) of 14.2 µM.

With `O=c1[nH]cc(F)c(=O)[nH]1` [FLUOROURACIL] the inhibition in vivo at 30 mg/kg (SW480 [3]) was 63.1%.

`CCc1c2c(nc3ccc(OC(=O)N4CCC(N5CCCCC5)CC4)cc13)-c1cc3c(c(=O)n1C2)COC(=O)[C@]3(O)CC` [IRINOTECAN] gave an inhibition of growth at 10 µg/mL (HT-29 [4]) of 59.3%, an inhibition of growth at 2.5 µg/mL (HT-29 [5]) of 37.4% and an inhibition of growth at 5 µg/mL (HT-29 [6]) of 54.7%. It also gave an inhibition of growth at 1.25 µg/mL (HT-29 [7]) of 22.9%.
